In BigSolDB 2.1:

O=C(/C=C/C=C/c1ccc2c(c1)OCO2)N1CCCCC1
solubility (mole fraction)
Details | 278.15 K | 283.15 K | 288.15 K | 293.15 K | 298.15 K | 303.15 K | 308.15 K | 313.15 K | 318.15 K
in acetone | 0.00485 | 0.00589 | 0.00706 | 0.0083 | 0.00973 | 0.0113 | 0.0129 | 0.0146 | 0.0166
in ethanol | 0.00413 | 0.00503 | 0.00607 | 0.00714 | 0.00827 | 0.00966 | 0.0111 | 0.0126 | 0.0143
in ethyl acetate | 0.00807 | 0.0104 | 0.0132 | 0.0161 | 0.0194 | 0.0232 | 0.0274 | 0.0321 | 0.0373
